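Protocol summary: plate cells (96-well), add compound at 5 concentrations, incubate 48 h, interpolate endpoints linearly. GI50: concentration for 50% inhibition of growth. TGI is the concentration that stops growth completely.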
Assays:
Experiment in all cases: NCI-60 cell line screen, 48 h; in the data active means GI50 below about 0.43 µM; inactive means the rest
HT29 colon = tested on: HT29 colon
M14 melanoma = tested on: M14 melanoma
MOLT-4 leukemia = tested on: MOLT-4 leukemia
NCI-H23 lung = tested on: NCI-H23 lung
OVCAR-5 ovarian = tested on: OVCAR-5 ovarian
RXF 393 renal = tested on: RXF 393 renal
SF-539 CNS = tested on: SF-539 CNS
UO-31 renal = tested on: UO-31 renal
U251 CNS = tested on: U251 CNS
A498 renal = tested on: A498 renal

O=c1cc(-c2ccccn2)[nH]c2ccc(Cl)cc12
inactive: GI50 (RXF 393 renal) 34 µM
> 100 µM: TGI (HT29 colon) | TGI (M14 melanoma) | TGI (MOLT-4 leukemia) | TGI (NCI-H23 lung) | TGI (OVCAR-5 ovarian) | TGI (RXF 393 renal) | TGI (SF-539 CNS) | TGI (UO-31 renal)

O=C1c2ccccc2C(=O)c2nc3ccc(Cl)cc3cc21
> 100 µM: TGI (HT29 colon) | TGI (M14 melanoma) | TGI (MOLT-4 leukemia) | TGI (NCI-H23 lung) | TGI (OVCAR-5 ovarian) | TGI (SF-539 CNS) | TGI (U251 CNS) | TGI (UO-31 renal)

CSc1ccc(C(=O)C(=O)c2ccc(SC)s2)s1
7.78 µM: TGI (MOLT-4 leukemia)
> 10 µM: TGI (HT29 colon) | TGI (M14 melanoma) | TGI (NCI-H23 lung) | TGI (OVCAR-5 ovarian) | TGI (RXF 393 renal) | TGI (SF-539 CNS) | TGI (U251 CNS) | TGI (UO-31 renal)

CC(=O)N(Cc1ccccc1)c1ccccc1I(=O)=O
42.9 µM: TGI (MOLT-4 leukemia)
> 100 µM: TGI (A498 renal) | TGI (HT29 colon) | TGI (NCI-H23 lung) | TGI (OVCAR-5 ovarian) | TGI (RXF 393 renal) | TGI (SF-539 CNS) | TGI (U251 CNS) | TGI (UO-31 renal)
inactive: GI50 (A498 renal) 49.7 µM | GI50 (HT29 colon) 27.8 µM | GI50 (MOLT-4 leukemia) 12.7 µM | GI50 (NCI-H23 lung) 37.8 µM | GI50 (OVCAR-5 ovarian) > 100 µM | GI50 (RXF 393 renal) > 100 µM | GI50 (SF-539 CNS) > 100 µM | GI50 (U251 CNS) 34.5 µM | GI50 (UO-31 renal) 38 µM

N[C@@H]1CCCC[C@@H]1N.O=P([O-])([O-])CN(CP(=O)([O-])[O-])CP(=O)([O-])[O-].[Pt+2]
inactive: GI50 (A498 renal) > 100 µM | GI50 (HT29 colon) > 100 µM | GI50 (M14 melanoma) > 100 µM | GI50 (MOLT-4 leukemia) > 100 µM | GI50 (SF-539 CNS) > 100 µM | GI50 (U251 CNS) > 100 µM | GI50 (UO-31 renal) > 100 µM
> 100 µM: TGI (A498 renal) | TGI (HT29 colon) | TGI (M14 melanoma) | TGI (MOLT-4 leukemia) | TGI (SF-539 CNS) | TGI (U251 CNS) | TGI (UO-31 renal)

O=C(Cc1csc2nc(-c3ccc(Br)cc3)cn12)N/N=C/c1ccc(O)cc1
> 100 µM: TGI (HT29 colon) | TGI (OVCAR-5 ovarian) | TGI (U251 CNS) | TGI (UO-31 renal)
46.5 µM: TGI (SF-539 CNS)
inactive: GI50 (HT29 colon) 49.9 µM | GI50 (M14 melanoma) 10.2 µM | GI50 (MOLT-4 leukemia) 4.21 µM | GI50 (NCI-H23 lung) 7.5 µM | GI50 (OVCAR-5 ovarian) 27.6 µM | GI50 (SF-539 CNS) 18.4 µM | GI50 (U251 CNS) 21.3 µM | GI50 (UO-31 renal) 26.3 µM
23.7 µM: TGI (M14 melanoma)
32.2 µM: TGI (NCI-H23 lung)

Cc1cc([N+](=O)[O-])c(C)c(Br)c1C
> 100 µM: TGI (A498 renal) | TGI (HT29 colon) | TGI (M14 melanoma) | TGI (NCI-H23 lung) | TGI (OVCAR-5 ovarian) | TGI (RXF 393 renal) | TGI (SF-539 CNS) | TGI (U251 CNS) | TGI (UO-31 renal)

CC1CC[C@]2(C(=O)O)CCC3(C)C(=CCC4[C@@]5(C)CC[C@H](OS(=O)(=O)c6ccccc6)C(C)(C)C5CC[C@]43C)[C@@H]2[C@H]1C (stereo partly drawn)
> 100 µM: TGI (A498 renal) | TGI (HT29 colon) | TGI (M14 melanoma) | TGI (MOLT-4 leukemia) | TGI (NCI-H23 lung) | TGI (OVCAR-5 ovarian) | TGI (SF-539 CNS) | TGI (U251 CNS) | TGI (UO-31 renal)

CC1=NN(C(=O)c2ccccc2O)C(=O)/C1=C/c1cccc([N+](=O)[O-])c1
> 31.8 µM: TGI (NCI-H23 lung)
0.801 µM: TGI (A498 renal)
5.88 µM: TGI (SF-539 CNS)
> 100 µM: TGI (HT29 colon) | TGI (M14 melanoma) | TGI (MOLT-4 leukemia) | TGI (OVCAR-5 ovarian) | TGI (U251 CNS)

COC(=O)CC(C(C(C)=O)C(=O)OCc1ccccc1)N1C(=O)OCC1c1ccccc1 (stereo not drawn)
> 100 µM: TGI (A498 renal) | TGI (HT29 colon) | TGI (M14 melanoma) | TGI (MOLT-4 leukemia) | TGI (NCI-H23 lung) | TGI (RXF 393 renal) | TGI (SF-539 CNS) | TGI (U251 CNS) | TGI (UO-31 renal)
